Values quoted from earlier work, collected in publication PMC7571151, “Design, Synthesis and Bioactivity Evaluation of 4,6-Disubstituted Pyrido[3,2-d]pyrimidine Derivatives as Mnk and HDAC Inhibitors” (Molecules, 2020).

System: Daudi non-Hodgkin lymphoma xenograft model
Design: method as in PMID 22693356
Settings: cited from earlier work

Question: With `COc1ccc(-c2nc(N3CCOCC3)c3sc(CN(C)c4ncc(C(=O)NO)cn4)cc3n2)cn1` [CUDC-907] as the compound, how does the tumor growth (Daudi non-Hodgkin lymphoma xenograft model) read?
Answer: Its tumor growth is “inhibited tumor growth in a dose-dependent manner”.

Question: What about the “Ac-H3 and p-AKT levels” value (in vivo anti-tumor activity studies) of the same compound?
Answer: Its value is “accumulation of Ac-H3 and a decrease in p-AKT levels”.
